Reference: ChEMBL document CHEMBL4049432, “Structure-Guided Discovery of Potent and Selective Inhibitors of ERK1/2 from a Modestly Active and Promiscuous Chemical Start Point” (J Med Chem, 2017)

Columns and labels:
[1] = Octanol-aqueous phosphate buffer distribution coefficient, log D of the compound at pH 7.4; assay type: physicochemical
[2] = Volume of distribution at steady state in rat plasma; assay type: ADME; details: read-out: Vdss
[3] = Oral bioavailability in rat; assay type: ADME, organism-based; details: in vivo
[4] = Volume of distribution at steady state in dog plasma; assay type: ADME, Canis lupus familiaris; details: read-out: Vdss
[5] = Oral bioavailability in dog; assay type: ADME, organism-based, Canis lupus familiaris; details: in vivo

| logD [1] | Structure (SMILES) | also measured |
| --- | --- | --- |
| 1.8 | COCCN1C(=O)c2cc(-c3ccnc(Nc4ccnn4C)n3)[nH]c2C[C@@H]1C | – |
| 2.14 | COCCN1C(=O)c2cc(-c3nc(Nc4ccnn4C)ncc3C)[nH]c2C[C@H]1C | – |
| 2.4 | Cc1cccc(CN2CCc3[nH]c(-c4ccnc(NC5CCOCC5)n4)cc3C2=O)n1 | – |
| 1.6 | CN1CCc2[nH]c(-c3ccnc(NC4CCOCC4)n3)cc2C1=O | – |
| – | Cc1cccc(CN2C(=O)c3cc(-c4nc(Nc5ccnn5C)ncc4C)cn3C[C@H]2C)n1 | Vd [2]: 1.3 L/kg; bioavailability [3]: 31%; Vd [4]: 0.9 L/kg; bioavailability [5]: 87% |
| 0.75 | O=C1NCCn2cc(-c3ccnc(NC4CCOCC4)n3)cc21 | – |
| 1.4 | COCCN1CCc2[nH]c(-c3ccnc(Nc4ccnn4C)n3)cc2C1=O | – |
| 1.6 | COCCN1CCc2[nH]c(-c3ccnc(NC4CCOCC4)n3)cc2C1=O | – |
| 2.6 | O=C1c2cc(-c3ccnc(NC4CCOCC4)n3)[nH]c2CCN1[C@H](CO)c1ccccc1 | – |
| 1.3 | Cn1c(-c2ccnc(NC3CCOCC3)n2)cc2c1CCNC2=O | – |
| 1.3 | O=C1NCCc2[nH]c(-c3ccnc(NC4CCOCC4)n3)cc21 | – |
| 1.7 | COCCN1CCc2c(cc(-c3ccnc(NC4CCOCC4)n3)n2C)C1=O | – |
| 1.7 | COCCN1C(=O)c2cc(-c3nc(Nc4ccnn4C)ncc3C)cn2C[C@H]1C | – |
| 2.11 | COCCN1C(=O)c2cc(-c3nc(Nc4ccnn4C)ncc3C)[nH]c2C[C@@H]1C | – |
| 1.7 | COCCN1C(=O)c2cc(-c3ccnc(Nc4ccnn4C)n3)[nH]c2C[C@H]1C | – |
| 1.3 | COCCN1CCn2cc(-c3nc(Nc4ccnn4C)ncc3C)cc2C1=O | – |
| 3.6 | O=C1c2cc(-c3ccnc(NC4CCOCC4)n3)[nH]c2CCN1[C@H](CO)c1ccc(F)c(Cl)c1 | – |
| 3.2 | O=C1c2cc(-c3ccnc(NC4CCOCC4)n3)[nH]c2CCN1Cc1ccccc1 | – |
| 1.6 | COCCN1C(=O)c2cc(-c3nc(Nc4ccnn4C)ncc3C)cn2C[C@@H]1C | – |
| 3.5 | O=C1c2cc(-c3ccnc(NC4CCOCC4)n3)[nH]c2CCN1[C@H](CO)c1ccc(Cl)c(F)c1 | – |
| 2.2 | Cc1cccc(CN2CCn3cc(-c4nc(Nc5ccnn5C)ncc4C)cc3C2=O)n1 | – |
| 3.3 | Cn1c(-c2ccnc(NC3CCOCC3)n2)cc2c1CCN(Cc1ccccc1)C2=O | – |
| 1.5 | CN1CCN(c2ccc(Nc3nccc(-c4cc5c([nH]4)CCNC5=O)n3)cc2)CC1 | – |
| 2.3 | Cc1cccc(CN2C(=O)c3cc(-c4ccnc(Nc5ccnn5C)n4)cn3CC2C)n1 (single isomer, unassigned; isomer 2) | – |
